Experiments:
CDNR4 cells [1] = experiment: Determination of the SRID-50% level of 6-TG (calibrated stress conditions); assay type: cell-based, murine
Procedure: The calibrated stress conditions and the SRID-x % level are determined ideally using parental, control, or vehicle-exposed cells. This portion of the assay requires that several variables, including cell plating density, calibrated stress conditions level, and duration of stress conditions exposure be optimized simultaneously. These variables are interdependent such that each affects the outcome of the other, thereby making this portion of the assay one of the most critical. To achieve high sensitivity for detection of assay endpoints, it is important that the maximum number of cells be evaluated; however, optimal calibrated stress conditions are achieved at relatively low cell plating densities. In addition, cell plating densities and the SKID-x % level of stress inducing agent chosen for use in the assay must be such that fewer than one positive endpoint per well occurs in the assay. Using cell survival as an example, if multiple surviving cell clones are identified in the same well(s) during an experiment, then the cell plating density must be reduced and/or the SRID-x % level must be increased so that the frequency of occurrence of surviving clones is reduced to less than one per well. Thus, optimization of these variables is necessary.
Pilot studies that evaluate a range of cell plating densities and a range of calibrated stress conditions levels for the stress inducing agent of choice are used and are applied to untreated, control or parental cells. It is advisable to use a low plating density that results in rapid expression of stress resolution pathways (within 3 to 4 days where possible), or as quickly as possible after calibrated stress conditions exposure. In spite of potentially significant differences between cells of different types from different tissues and from different species, preliminary results from the SR assay support the conclusion that the optimal plating density for many cell types falls within a predictable range. […] These values can serve as starting points for empirical determination of the optimal cell plating density for the cells of interest to be used in the assay.
After estimating the optimal cell plating density, dose response curves are generated for the calibrated stress conditions agent of interest. For experiments in which cell survival is the phenotype of interest, work with the assay completed to date supports the conclusion that calibrated stress conditions levels that reduce expression of pro-survival pathways to a level that results in survival of one or fewer clones in 50% of the wells of a 96 well plate (defined as the SRID-50%) is the optimal level for assessment of damage avoidance pro-survival pathways. Use of these levels also results in a sufficiently robust expression of damage tolerance paths to make it possible to evaluate differences or changes in expression of these pathways between cell types and/or between differing exogenous exposures. Because cell plating density and level of calibrated stress inducing agent are inter-dependent, it may be necessary to perform several pilot studies using differing cell plating densities and a range of stress-response inducing levels to find the optimal combination of use with the cell type of interest in the assay.
There are two limits associated with Poisson distribution principles that must be considered in selecting the SRID-x % level of stress inducing agent. First, stress induction levels that result in a response frequency, for the response type of interest, that is near or equal to 100% of the sites being evaluated should be avoided and the same considerations are true for stress induction levels resulting in responses frequencies near or equal to 0%. The SR assay cannot accurately quantify response frequencies near 100% or near 0%, and this limitation forms the one of the factors affecting the selection of the SRID-x % level. […]

CDNR4 cells [2] = experiment: Midway cloning efficiency (mCE), pre-calibrated stress conditions pro-survival pathway function; assay type: cell-based, murine; settings: ENU 20 micrograms/ml 1 hour, 2 weeks (day 14) post-exposure
Text: mCE procedure #2 for cells that grow attached to a surface or basement membrane and/or that have the following growth characteristics when grown in tissue culture. The second method is novel and is recommended for use with epithelial cells, cells that form tight junctions, cells that produce mucinous material during in vitro cell culture, and/or cells that attach to a basement membrane. The latter characteristics are typical of epithelial cells but are not unique to this cell type alone.
This procedure is used to obtain an accurate cell count in vials of very dilute cells that are used for plating cloning efficiency plates. […]
For this procedure, the cell aliquot that was set aside during the initial cell counting is divided into 2 equal groups and diluted as follows. […] Approximately 12 to 15 hours later, the average number of cells per milliliter on the 6 or 12 well plates for both groups A and B is determined using light microscopy to visualize and count the cells. […] Viable cells are counted; dead cells or cell fragments are not counted. […] The final cloning efficiency is determined using the formula presented above (see phase 3 step 5). […]

For `CCN(N=O)C(N)=O` [ENU, ethylnitrosourea], the “SRID-50% of ENU-exposed cells” value (CDNR4 cells [1]; ENU 20 micrograms/ml 1 hour, 2 weeks earlier, 600 cells per well, stress agent 6-TG) was 2.5 micrograms/ml, the “reduction in the functionality of pro-survival cellular stress response pathways” value (CDNR4 cells [1]; ENU-exposed vs unexposed CDNR4 cells, from SRID-50% levels) was 20 fold and the “SRID-50% level of ENU-exposed CDNR4 cells” value (CDNR4 cells [1]; pre-exposure 20 micrograms ENU 1 hour, tested two weeks later, 6-TG for 4 days) was 2.5 micrograms 6-TG. The “mCE (midway cloning efficiency)” value (CDNR4 cells [2]) was 34.2%.

Source: patent US20130040291A1, “Detection and Quantification of Cellular Stress Response Resolution Pathway Expression and Functionality and the Effects of Agents or Conditions Thereupon” (priority 2011, published 2013)
